Literature values as cited in patent publication US20060040003A1, “Dietary supplement for supressing appetite, enhancing and extending satiety, improving glycemic control, and stimulant free” (priority 2004, published 2006).

Biological target: T1, plasma albumin (Homo sapiens, UniProt P02768)
T1 construct: host or cells: blood plasma (circulation)
T1 sequence (P02768 25-609): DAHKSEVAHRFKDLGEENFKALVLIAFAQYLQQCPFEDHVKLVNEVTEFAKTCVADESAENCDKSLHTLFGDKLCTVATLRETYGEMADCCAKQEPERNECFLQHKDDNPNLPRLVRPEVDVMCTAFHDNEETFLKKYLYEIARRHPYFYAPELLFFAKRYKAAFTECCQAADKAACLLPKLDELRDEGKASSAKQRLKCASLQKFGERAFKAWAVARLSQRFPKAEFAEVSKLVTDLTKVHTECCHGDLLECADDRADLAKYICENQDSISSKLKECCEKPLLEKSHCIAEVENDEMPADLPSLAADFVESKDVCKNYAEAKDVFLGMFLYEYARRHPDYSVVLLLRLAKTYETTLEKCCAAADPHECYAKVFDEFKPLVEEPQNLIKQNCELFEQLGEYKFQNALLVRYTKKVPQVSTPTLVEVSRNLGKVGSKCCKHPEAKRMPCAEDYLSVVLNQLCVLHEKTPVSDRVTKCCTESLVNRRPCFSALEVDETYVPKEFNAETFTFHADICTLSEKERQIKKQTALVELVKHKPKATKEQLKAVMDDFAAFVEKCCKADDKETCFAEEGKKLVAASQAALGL

circulating in the blood as free tryptophane: 20%
SMILES: N[C@@H](Cc1c[nH]c2ccccc12)C(=O)O [tryptophane]
